# Experimental data taken from patent US12606541B2, “PPARg modulators and methods of use” (Eisai R&D Management Co., Ltd., priority 2020, dated 2026).
# Read-outs that look alike come from different tables or passages of the source.
# Key:
# His6-TEV-PPARγ-(234-505) = target: T1, His6-TEV-PPARγ-(234-505) (Homo sapiens, UniProt P37231); assay: TR-FRET Assay to Measure Co-R Peptide Recruitment to PPARγ; type: biochemical; details: Co-R peptide (SMRT-ID2) recruitment; top final concentration 20 μM; read-out: TR-FRET i-Ag; AC50
# T1 construct: The His6-TEV-PPARγ-(234-505) protein for assay was expressed and purified; TEV cleavage site (N); made in house
# T1 sequence (P37231 234-505): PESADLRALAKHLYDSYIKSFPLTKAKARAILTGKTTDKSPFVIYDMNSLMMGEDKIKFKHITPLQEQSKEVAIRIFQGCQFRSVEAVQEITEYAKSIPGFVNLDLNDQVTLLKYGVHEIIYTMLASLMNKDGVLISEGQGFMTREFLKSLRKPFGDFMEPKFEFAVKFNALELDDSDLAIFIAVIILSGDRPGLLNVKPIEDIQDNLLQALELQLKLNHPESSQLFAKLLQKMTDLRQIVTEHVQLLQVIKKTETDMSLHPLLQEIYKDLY
# Outline: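 His-tagged PPARγ (or controls) was preincubated with compound for 20 minutes at room temperature, then 5 nM anti-His terbium antibody and 200 nM FITC-labeled SMRT-ID2 corepressor peptide (final) were added for a further hour. TR-FRET signal was normalized to percent response using 500 nM T0070907 and DMSO controls.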
# UM-UC-9 engineered cells = assay: Cell proliferation / short-term viability assay, CellTiter-Glo 144 h; type: cell-based, human; details: read-out: CTGlo 144 h UMUC9.5, G150
# Protocol: Cell Seeding for Proliferation Assay
# UM-UC-9 engineered cells were cultured in Dulbecco's Modified Eagle Medium (DMEM) supplemented with 10% FBS, 25 mM glucose (high glucose), 4.0 mM L-glutamine, 2.0 mM GlutaMAX™, 1.0 mM pyruvate, 1.0% non-essential amino acids (NEAA) in a 95% humidified incubator at 37° C. with 5% CO2. Cell banks of UM-UC-9 engineered assay-ready cells (ARCs) were prepared from a very active growth stage. Vials of ARCs containing approximately 5×10^6 cells per vial were stored in liquid nitrogen vapor phase cryostorage until use.
# For making assay plates, ARCs were recovered from cryostorage, strained in a […] cell strainer, verified for cell viability >90% and counted using a cell counter (Cellometer Auto 1000, Nexelom). Each cell line was seeded into 384-well plates (50 μl/well) using DMEM medium at a density previously determined to be in log growth phase 7 days post-seeding (500 cells/well) using a bulk reagent dispenser (Multidrop™ Combi, Thermo Scientific) with a large-bore plastic-tip cassette pre-sanitized with 70% ethanol. One plate of cells was designated as the pretreatment time-zero (T0) control. Freshly seeded plates were allowed to sit lidded for 30 minutes within a biosafety cabinet for cells to settle distributed within the plate wells uniformly and then placed into an automated incubator (STX110, Liconic) at 37° C., 5% CO2, and 95% relative humidity.
# Preparation of Test Compound in Assay-Ready Plate
# Compounds were stored in a low-temperature sample archive as 10 mM dimethyl sulfoxide (DMSO) solutions at −20° C. under reduced humidity (−45° C. dew point) and protected from light. All samples in the automated archive are stored in 2D barcoded polypropylene tubes, tracked through a laboratory information management system (LIMS), and have been verified for identity and purity by NMR (Chemistry, H3 Biomedicine) and by LCMS (Analytical Chemistry, H3 Biomedicine) at the time of sample registration. Identity by mass matching and purity are again verified at the time of sample request fulfillment by redundant LCMS methods (acidic and basic separation protocols; Analytical Chemistry, H3 Biomedicine). Samples retrieved from low-temperature archive storage were solubilized by heated sonication (Bransonic® Ultrasonic Bath, Branson), transferred (Microlab Starlet, Hamilton) and serially-diluted (Viaflo Assist, Integra) by low-volume liquid handlers, and tracked in LIMS by automation log files to create a ID barcoded master dose-response plate (MDR) to serve as a standard source for all assay-ready plates (ARP) used within an experiment. ARPs prepared by acoustic transfer (ATS-100, EDC) of nL volumes from the MDR source were heat-sealed (PlateLoc, Agilent) and stored at −20° C. prior to use (<7 days from production). Tracking of liquid transfers via acoustic dispenser log files were used to update the LIMS system for all ARP plate maps.
# Measurement of Pretreatment Control Cells and Sample Anti-Proliferative Effects on Treated Cells
# On day 0 (pretreatment cells) or day 7 (treated cells), a cell proliferation assay was performed using an automated robotic assay platform (ACell, High-Res Biosolutions). Cell ARP's were removed from incubation, their plate lid discarded, and using a bulk reagent dispenser (Multidrop™ Combi, Thermo Scientific with a small-bore metal-tip cassette) 25 μL (1/2 volume) of Cell Titer-Glo® 2.0 Cell Viability Assay reagent (Promega) was added to wells of columns 1-23 (column 24 will be used as plate background or positive control). Cell ARP's were incubated at room temperature in an automation hotel position for a total of 1.0 minute while the next plate was delivered to the bulk reagent dispenser and then lid-free cell ARP's were returned to incubate at 37° C. for 2.5 hours. […]
Structure (SMILES),AC50 (His6-TEV-PPARγ-(234-505)) [nM],"IC50 (UM-UC-9 engineered cells; Homo sapiens, UM-UC-9, 144 h) [nM]",IC50 (UM-UC-9 engineered cells) [nM]
"CCOC1(C(F)(F)F)CCC(NC(=O)[C@H]2CCN(C(=O)c3cc(-c4cc(C)ncn4)[nH]n3)C3(CC3)C2)CC1 (mixture of isomers) [Example 308-A, (S)—N-(4-ethoxy-4-(trifluoromethyl)cyclohexyl)-4-(5-(6-methylpyrimidin-4-yl)-1H-pyrazole-3-carbonyl)-4-azaspiro[2.5]octane-7-carboxamide]",2.8,5.6,
"CCOC1(C(F)(F)F)CCC(NC(=O)[C@@H]2CCN(C(=O)c3cc(-c4cc(C)ncn4)[nH]n3)C3(CC3)C2)CC1 (mixture of isomers) [Example 308-B, (R)—N-(4-ethoxy-4-(trifluoromethyl)cyclohexyl)-4-(5-(6-methylpyrimidin-4-yl)-1H-pyrazole-3-carbonyl)-4-azaspiro[2.5]octane-7-carboxamide]",548,1010,
"COc1cc(-c2cc(C(=O)N3[C@@H]4CC[C@H]3C[C@H](C(=O)NC3CCC5(CC3)OCCC5(F)F)C4)n[nH]2)c(F)cn1 (mixture of isomers) [Example 320, (1R,3s,5S)—N-(4,4-difluoro-1-oxaspiro[4.5]decan-8-yl)-8-(5-(5-fluoro-2-methoxypyridin-4-yl)-1H-pyrazole-3-carbonyl)-8-azabicyclo[3.2.1]octane-3-carboxamide]",10.4,29.5,
"COc1cc(-c2cc(C(=O)N3CCC(C(=O)NCC4CCc5n[nH]cc5C4)CC34CC4)[nH]n2)c(F)cn1 (mixture of isomers) [Example 341, (S)-4-(3-(5-fluoro-2-methoxypyridin-4-yl)-1H-pyrazole-5-carbonyl)-N—(((R)-4,5,6,7-tetrahydro-2H-indazol-5-yl)methyl)-4-azaspiro[2.5]octane-7-carboxamide and (S)-4-(3-(5-fluoro-2-methoxypyridin-4-yl)-1H-pyrazole-5-carbonyl)-N—(((S)-4,5,6,7-tetrahydro-2H-indazol-5-yl)methyl)-4-azaspiro[2.5]octane-7-carboxamide]",5,,10.3
"COc1cc(-c2cc(C(=O)N3CCC(C(=O)NCC4CCn5cncc5C4)CC34CC4)[nH]n2)c(F)cn1 (mixture of isomers) [Example 342, (8)-4-(3-(5-fluoro-2-methoxypyridin-4-yl)-1H-pyrazole-5-carbonyl)-N—(((R)-5,6,7,8-tetrahydroimidazo[1,5-a]pyridin-7-yl)methyl)-4-azaspiro[2.5]octane-7-carboxamide and (S)-4-(3-(5-fluoro-2-methoxypyridin-4-yl)-1H-pyrazole-5-carbonyl)-N—(((S)-5,6,7,8-tetrahydroimidazo[1,5-a]pyridin-7-yl)methyl)-4-azaspiro[2.5]octane-7-carboxamide]",78.3,,1130
"COc1cc(-c2cc(C(=O)N3CCC(C(=O)NCC4CCn5c(C)nnc5C4)CC34CC4)[nH]n2)c(F)cn1 (mixture of isomers) [Example 346, (S)-4-(3-(5-fluoro-2-methoxypyridin-4-yl)-1H-pyrazole-5-carbonyl)-NVR)-3-methyl-5,6,7,8-tetrahydro-[1,2,4]triazolo[4,3-a]pyridin-7-yl)methyl)-4-azaspiro[2.5]octane-7-carboxamide and (8)-4-(3-(5-fluoro-2-methoxypyridin-4-yl)-1H-pyrazole-5-carbonyl)-N—(((S)-3-methyl-5,6,7,8-tetrahydro-[1,2,4]triazolo[4,3-a]pyridin-7-yl)methyl)-4-azaspiro[2.5]octane-7-carboxamide]",371,,> 10000
COc1cc(-c2cc(C(=O)N3CCC(NC(=O)C4CCC(O)(C(F)(F)F)CC4)CC34CC4)n[nH]2)c(F)cn1 (mixture of isomers) [Example 347],317,,1860
"COc1cc(-c2cc(C(=O)N3CCC(C(=O)NCC4CCc5nccn5C4)CC34CC4)n[nH]2)c(F)cn1 (mixture of isomers) [Example 356, (S)-4-(5-(5-fluoro-2-methoxypyridin-4-yl)-1H-pyrazole-3-carbonyl)-N—(((S)-5,6,7,8-tetrahydroimidazo[1,2-a]pyridin-6-yl)methyl)-4-azaspiro[2.5]octane-7-carboxamide and (S)-4-(5-(5-fluoro-2-methoxypyridin-4-yl)-1H-pyrazole-3-carbonyl)-N—(((R)-5,6,7,8-tetrahydroimidazo[1,2-a]pyridin-6-yl)methyl)-4-azaspiro[2.5]octane-7-carboxamide]",113,,4790
"COc1cc(-c2cc(C(=O)N3CCC(C(=O)N[C@H]4CC[C@@](O)(C(F)(F)F)CC4)C[C@@H]3C(F)(F)F)n[nH]2)c(F)cn1 (mixture of isomers) [Example 368, (2R,4R)-1-(5-(5-fluoro-2-methoxypyridin-4-yl)-1H-pyrazole-3-carbonyl)-N-((1r,4R)-4-hydroxy-4-(trifluoromethyl)cyclohexyl)-2-(trifluoromethyl)piperidine-4-carboxamide and (2R,4S)-1-(5-(5-fluoro-2-methoxypyridin-4-yl)-1H-pyrazole-3-carbonyl)-N-((1r,4S)-4-hydroxy-4-(trifluoromethyl)cyclohexyl)-2-(trifluoromethyl)piperidine-4-carboxamide]",244,497,
COc1cc(-c2cc(C(=O)N3CC[C@H](C(=O)NCC4CCS(=N)(=O)C4(C)C)CC34CC4)n[nH]2)c(F)cn1 (mixture of isomers) [Example 372-A],696,> 10000,
"COc1cc(-c2cc(C(=O)N3CCC(C(=O)NC(C)c4ncc(F)cc4Cl)CC34CC4)n[nH]2)c(F)cn1 (mixture of isomers) [Example 377, (S)—N—((R)-1-(3-chloro-5-fluoropyridin-2-yl)ethyl)-4-(5-(5-fluoro-2-methoxypyridin-4-yl)-1H-pyrazole-3-carbonyl)-4-azaspiro[2.5]octane-7-carboxamide and (S)—N—((S)-1-(3-chloro-5-fluoropyridin-2-yl)ethyl)-4-(5-(5-fluoro-2-methoxypyridin-4-yl)-1H-pyrazole-3-carbonyl)-4-azaspiro[2.5]octane-7-carboxamide]",20.2,,25.9
"COc1cc(-c2cc(C(=O)N3CCC(C(=O)NC4C(C)(C)C(N5CCC(F)(F)C5)C4(C)C)CC34CC4)n[nH]2)c(F)cn1 (mixture of isomers) [Example 378, (S)—N-((1s,3R)-3-(3,3-difluoropyrrolidin-1-yl)-2,2,4,4-tetramethylcyclobutyl)-4-(5-(5-fluoro-2-methoxypyridin-4-yl)-1H-pyrazole-3-carbonyl)-4-azaspiro[2.5]octane-7-carboxamide and (S)—N-((1r,3S)-3-(3,3-difluoropyrrolidin-1-yl)-2,2,4,4-tetramethylcyclobutyl)-4-(5-(5-fluoro-2-methoxypyridin-4-yl)-1H-pyrazole-3-carbonyl)-4-azaspiro[2.5]octane-7-carboxamide]",130,,224
